This note sets out measurements from DBAASP.

Experiment in all cases: ≥ marks a high value that may be exact or a test limit, other limits are often not marked, values filed in µg/mL are converted to µM
The test system of assay [1] is Candida glabrata ATCC 2001.
Assay [2] relates to Candida albicans ATCC 10231.
Assay [3] relates to Klebsiella pneumoniae ATCC 13883.
Assay [4] concerns Bacillus subtilis 168.
Assay [5] deals with Staphylococcus aureus ATCC 25923.
Assay [6] relates to Staphylococcus aureus USA 400.
Assay [7] relates to Staphylococcus aureus Newman.
Assay [8] deals with Staphylococcus aureus USA 300.
Assay [9] deals with Staphylococcus aureus UAMS-1.
Assay [10] relates to Candida albicans ATCC 90028.
Assay [11] concerns Pseudomonas aeruginosa PAO1.
Assay [12] relates to Escherichia coli ATCC 25922.
The test system of assay [13] is Staphylococcus aureus MU50.
The subject of assay [14] is Staphylococcus epidermidis 1457.
Assay [15] deals with Escherichia coli ATCC 25726.
Assay [16] relates to Staphylococcus aureus USA 200.
The subject of assay [17] is Candida tropicalis ATCC 13803.
Assay [18] deals with Pseudomonas aeruginosa ATCC 27853.
Assay [19] concerns Staphylococcus aureus ATCC 43300.
The test system of assay [20] is Pseudomonas aeruginosa CUN 4158-02.
The subject of assay [21] is Acinetobacter baumannii ATCC 19606.
Assay [22] concerns Bordetella bronchiseptica CUN 11844-99.
In assay [23] the test system is Staphylococcus aureus CUN 3792-99.
Assay [24] deals with Stenotrophomonas maltophilia CUN 3998-00.
The test system of assay [25] is Serratia sp. ATCC 21074.
The subject of assay [26] is Saccharomyces cerevisiae ATCC 44774.
Assay [27] has as its system Cryptococcus neoformans ATCC 34881.
Assay [28] has as its system Bacillus subtilis ATCC 62037.
Assay [29] deals with Escherichia coli ATCC 27325.
In assay [30] the test system is Pseudomonas putida ATCC 17426.
In assay [31] the test system is Staphylococcus aureus ATCC 15752.
Assay [32] has as its system Streptococcus mutans ATCC 25175.
In assay [33] the test system is Klebsiella pneumoniae PTCC 1388.
Assay [34] deals with Escherichia coli HP101BA 7601c.
The subject of assay [35] is Staphylococcus aureus PTCC 1431.
For assay [36], the system named is Micrococcus luteus PTCC 1625.
In assay [37] the test system is Methylobacterium sp.
For assay [38], the system named is Xanthomonas citri.
In assay [39] the test system is Agrobacterium tumefaciens GV3101.

Values after ≈ are worked out from the molar mass of the structure shown.

For the molecule `CC[C@H](C)[C@H](N)C(=O)N1CCC[C@H]1C(=O)N1CCC[C@H]1C(=O)N[C@@H](Cc1ccccc1)C(=O)N[C@H](C(=O)N[C@@H](CCCCN)C(=O)N[C@@H](CCCCN)C(=O)N[C@H](C(=O)N[C@@H](CC(C)C)C(=O)N[C@H](C(=O)N[C@H](C(=O)N[C@H](C(=O)N[C@@H](Cc1ccccc1)C(N)=O)C(C)C)[C@@H](C)O)[C@@H](C)O)C(C)C)[C@@H](C)CC` [IPPFIKKVLTTVF], the MIC in assay [1] is 12.5 µM (≈ 18.8 µg/mL); in assay [2], 25 µM (≈ 37.5 µg/mL); in assay [3], not below 50 µM; in assay [4], not below 50 µM; in [5] it was 50 µM (≈ 75.1 µg/mL); in assay [6], 25 µM (≈ 37.5 µg/mL). The MIC is 25 µM (≈ 37.5 µg/mL) in assay [7]; 25 µM (≈ 37.5 µg/mL) in assay [8]; 25 µM (≈ 37.5 µg/mL) in [9]; 25 µM (≈ 37.5 µg/mL) in [10]; more than 50 µM in [11]; 12.5 µM (≈ 18.8 µg/mL) in [12]. Besides, the MIC is 25 µM (≈ 37.5 µg/mL) in [13]; 12.5 µM (≈ 18.8 µg/mL) in assay [14]; 25 µM (≈ 37.5 µg/mL) in assay [15]; 25 µM (≈ 37.5 µg/mL) in assay [16]; 4.38 µM (≈ 6.58 µg/mL) in assay [17].
With `NCCCC[C@H](NC(=O)CNC(=O)[C@H](CCCN=C(N)N)NC(=O)[C@H](Cc1ccc(O)cc1)NC(=O)[C@H](CCCN=C(N)N)NC(=O)[C@H](Cc1c[nH]c2ccccc12)NC(=O)[C@H](CCCN=C(N)N)NC(=O)[C@H](Cc1ccccc1)NC(=O)[C@H](CCCCN)NC(=O)[C@H](CCCCN)NC(=O)[C@H](Cc1c[nH]c2ccccc12)NC(=O)[C@H](CCCN=C(N)N)NC(=O)[C@H](CCCN=C(N)N)NC(=O)[C@H](CS)NC(=O)CN)C(=O)N[C@@H](Cc1ccccc1)C(=O)N[C@@H](Cc1c[nH]c2ccccc12)C(=O)N[C@@H](Cc1ccccc1)C(=O)N[C@@H](Cc1c[nH]c2ccccc12)C(=O)N[C@@H](CS)C(=O)NCC(N)=O` [GCRRWKKFRWRYRGKFWFWCG], the MIC is 22 µM (≈ 64 µg/mL) in assay [5]; 44 µM (≈ 128 µg/mL) in assay [18]; 11 µM (≈ 32 µg/mL) in [19]; not below 44 µM in assay [20]; 44 µM (≈ 128 µg/mL) in [12]; 22 µM (≈ 64 µg/mL) in [21]. In addition, the values for the MIC in [22], in assay [23] and in [24] were 11 µM (≈ 32 µg/mL), 22 µM (≈ 64 µg/mL) and 22 µM (≈ 64 µg/mL), respectively.
As to `CC[C@H](C)[C@H](NC(=O)[C@H](CCCN=C(N)N)NC(=O)[C@H](CCC(=O)O)NC(=O)[C@@H]1CCCN1C(=O)[C@@H]1CCCN1C(=O)[C@H](Cc1ccc(O)cc1)NC(=O)[C@H](CC(C)C)NC(=O)[C@H](Cc1ccccc1)NC(=O)[C@H](CCC(N)=O)NC(=O)[C@@H]1CCCN1C(=O)CNC(=O)[C@@H](NC(=O)[C@H](Cc1ccc(O)cc1)NC(=O)[C@H](CCC(N)=O)NC(=O)[C@H](CC(N)=O)NC(=O)[C@H](CCCCN)NC(=O)[C@H](CCCN=C(N)N)NC(=O)[C@H](CCC(=O)O)NC(=O)[C@H](CO)NC(=O)[C@H](Cc1ccc(O)cc1)NC(=O)[C@@H]1CCCN1C(=O)[C@H](CCCN=C(N)N)NC(=O)[C@H](CCCCN)NC(=O)[C@H](CC(=O)O)NC(=O)[C@H](CCCCN)NC(=O)[C@H](CCC(N)=O)NC(=O)[C@@H](N)CCCN=C(N)N)[C@@H](C)O)C(=O)N1CCC[C@H]1C(=O)N1CCC[C@H]1C(=O)O` [RQKDKRPYSERKNQYTGPQFLYPPERIPP], the MIC was determined as 3.34 µM (≈ 12 µg/mL) in assay [2]; 3.34 µM (≈ 12 µg/mL) in [25]; 2.23 µM (≈ 8 µg/mL) in assay [26]; 4.46 µM (≈ 16 µg/mL) in [27]; 2.23 µM (≈ 8 µg/mL) in assay [28]; 2.23 µM (≈ 8 µg/mL) in assay [29]. In addition, the MIC turned out to be 3.34 µM (≈ 12 µg/mL) in [30], 3.34 µM (≈ 12 µg/mL) in assay [31] and 5.57 µM (≈ 20 µg/mL) in assay [32].
With `CC(C)C[C@H](NC(=O)[C@H](C)NC(=O)[C@H](CC(N)=O)NC(=O)[C@H](CC(C)C)NC(=O)[C@@H](N)Cc1ccccc1)C(=O)N[C@@H](CCCCN)C(=O)N[C@@H](CC(N)=O)C(=O)N[C@@H](Cc1ccccc1)C(=O)N[C@@H](C)C(=O)N[C@@H](CCCCN)C(=O)N[C@H](C(=O)N[C@@H](C)C(=O)NCC(=O)N[C@@H](CCCCN)C(=O)N[C@@H](CCCN=C(N)N)C(=O)N[C@@H](CC(C)C)C(=O)N[C@@H](CCCCN)C(=O)N[C@@H](CO)C(=O)N[C@@H](CC(C)C)C(=O)N[C@@H](CC(C)C)C(=O)N[C@@H](CC(N)=O)C(=O)O)[C@@H](C)O` [FLNALKNFAKTAGKRLKSLLN], the MIC is 7.3 µM (≈ 17.1 µg/mL) in [33], 6.4 µM (≈ 15 µg/mL) in assay [34], 5.3 µM (≈ 12.4 µg/mL) in assay [35] and 4.7 µM (≈ 11 µg/mL) in assay [36].
For the molecule `CC[C@H](C)[C@H](N)C(=O)N[C@@H](Cc1ccccc1)C(=O)NCC(=O)N[C@@H](C)C(=O)N[C@H](C(=O)N[C@@H](CC(C)C)C(=O)N1CCC[C@H]1C(=O)N[C@@H](CC(C)C)C(=O)N[C@@H](C)C(=O)N[C@@H](CC(C)C)C(=O)NCC(=O)N[C@@H](C)C(=O)N[C@@H](CC(C)C)C(=O)N[C@@H](CCCCN)C(=O)N[C@@H](CC(N)=O)C(=O)N[C@@H](CC(C)C)C(=O)N[C@H](C(=O)N[C@@H](CCCCN)C(=O)O)[C@@H](C)CC)[C@@H](C)CC` [IFGAILPLALGALKNLIK], the values for the MIC in assay [37], in assay [38] and in assay [39] were 9 µM (≈ 16.8 µg/mL), 4 µM (≈ 7.46 µg/mL) and 17 µM (≈ 31.7 µg/mL), respectively.

Usually MIC stands for the least concentration at which growth counts as inhibited.
